Columns and labels:
Format in all cases: in vivo
[1] = system: Diabrotica balteata (Corn Root Worm); test: Example B2: Diabrotica balteata, sprayed maize sprouts, mortality and growth inhibition; details: 96 h, application rate of 200 ppm, L2 larvae, 4 days after infestation, read-out: effect in at least one of the two categories (mortality or growth inhibition)
Description: Maize sprouts placed onto an agar layer in 24-well microtiter plates were treated with aqueous test solutions prepared from 10,000 ppm DMSO stock solutions by spraying. After drying, the plates were infested with L2 larvae (6 to 10 per well). The samples were assessed for mortality and growth inhibition in comparison to untreated samples 4 days after infestation.

[2] = system: Diabrotica balteata (Corn Root Worm); test: Example B3: Diabrotica balteata, sprayed maize sprouts, mortality; details: 96 h, application rate of 200 ppm, L2 larvae, 4 days after infestation
Description: Maize sprouts placed onto an agar layer in 24-well microtiter plates were treated with aqueous test solutions prepared from 10,000 ppm DMSO stock solutions by spraying. After drying, the plates were infested with L2 larvae (6 to 10 per well). The samples were assessed for mortality 4 days after infestation.

[3] = system: Euschistus heros (Neotropical Brown Stink Bug); test: Example B4: Euschistus heros, sprayed soybean leaves, growth inhibition; details: 120 h, application rate of 200 ppm, N2 nymphs, 5 days after infestation
Description: Soybean leaves on agar in 24-well microtiter plates were sprayed with aqueous test solutions prepared from 10,000 ppm DMSO stock solutions. After drying the leaves were infested with N2 nymphs. The samples were assessed for growth inhibition in comparison to untreated samples 5 days after infestation. Control of Euschistus heros by a test sample is given when the growth inhibition is higher than the untreated sample.

[4] = system: Euschistus heros (Neotropical Brown Stink Bug); test: Example B5: Euschistus heros, sprayed soybean leaves, mortality; details: 120 h, application rate of 200 ppm, N2 nymphs, 5 days after infestation
Description: Soybean leaves on agar in 24-well microtiter plates were sprayed with aqueous test solutions prepared from 10,000 ppm DMSO stock solutions. After drying the leaves were infested with N2 nymphs. The samples were assessed for mortality 5 days after infestation.

[5] = system: Euschistus heros (Neotropical Brown Stink Bug); test: Example B6: Euschistus heros, sprayed soybean leaves, mortality and growth inhibition; details: 120 h, application rate of 200 ppm, N2 nymphs, 5 days after infestation, read-out: effect in at least one of the two categories (mortality or growth inhibition)
Description: Soybean leaves on agar in 24-well microtiter plates were sprayed with aqueous test solutions prepared from 10,000 ppm DMSO stock solutions. After drying the leaves were infested with N2 nymphs. The samples were assessed for mortality and growth inhibition in comparison to untreated samples 5 days after infestation.

[6] = system: Myzus persicae (Green Peach Aphid); test: Example B8: Myzus persicae, sprayed sunflower leaf discs, mortality; details: foliar, 144 h, application rate of 200 ppm, leaf disc spray, aphid population of mixed ages, 6 days after infestation
Description: Sunflower leaf discs were placed onto agar in a 24-well microtiter plate and sprayed with aqueous test solutions prepared from 10,000 ppm DMSO stock solutions. After drying, the leaf discs were infested with an aphid population of mixed ages. The samples were assessed for mortality 6 days after infestation.

[7] = system: Plutella xylostella (Diamond Back Moth); test: Example B10: Plutella xylostella, treated artificial diet, growth inhibition; details: 120 h, application rate of 200 ppm, L2 larvae, 5 days after infestation
Description: 24-well microtiter plates with artificial diet were treated with aqueous test solutions prepared from 10,000 ppm DMSO stock solutions by pipetting. After drying, the plates were infested with L2 larvae (10 to 15 per well). The samples were assessed for growth inhibition in comparison to untreated samples 5 days after infestation. Control of Plutella xylostella by a test sample is given when the growth inhibition is higher than the untreated sample.

[8] = system: Plutella xylostella (Diamond Back Moth); test: Example B12: Plutella xylostella, treated artificial diet, mortality; details: 120 h, application rate of 200 ppm, L2 larvae, 5 days after infestation
Description: 24-well microtiter plates with artificial diet were treated with aqueous test solutions prepared from 10,000 ppm DMSO stock solutions by pipetting. After drying, the plates were infested with L2 larvae (10 to 15 per well). The samples were assessed for mortality 5 days after infestation.

[9] = system: Plutella xylostella (Diamond Back Moth); test: Example B13: Plutella xylostella, treated artificial diet, mortality and growth inhibition; details: 120 h, application rate of 200 ppm, L2 larvae, 5 days after infestation, read-out: effect in at least one of the two categories (mortality or growth inhibition)
Description: 24-well microtiter plates with artificial diet were treated with aqueous test solutions prepared from 10,000 ppm DMSO stock solutions by pipetting. After drying, the plates were infested with L2 larvae (10 to 15 per well). The samples were assessed for mortality and growth inhibition in comparison to untreated samples 5 days after infestation.

[10] = system: Spodoptera littoralis (Egyptian Cotton Leaf Worm); test: Example B14: Spodoptera littoralis, sprayed cotton leaf discs, anti-feeding effect; details: foliar, 72 h, application rate of 200 ppm, L1 larvae, 3 days after infestation
Description: Cotton leaf discs were placed onto agar in 24-well microtiter plates and sprayed with aqueous test solutions prepared from 10,000 ppm DMSO stock solutions. After drying the leaf discs were infested with five L1 larvae. The samples were assessed for anti-feeding effect in comparison to untreated samples 3 days after infestation. Control of Spodoptera littoralis by a test sample is given when the anti-feedant effect is higher than the untreated sample.

[11] = system: Spodoptera littoralis (Egyptian Cotton Leaf Worm); test: Example B15: Spodoptera littoralis, sprayed cotton leaf discs, growth inhibition; details: foliar, 72 h, application rate of 200 ppm, L1 larvae, 3 days after infestation, read-out: control (growth inhibition)
Description: Cotton leaf discs were placed onto agar in 24-well microtiter plates and sprayed with aqueous test solutions prepared from 10,000 ppm DMSO stock solutions. After drying the leaf discs were infested with five L1 larvae. The samples were assessed for growth inhibition in comparison to untreated samples 3 days after infestation. Control of Spodoptera littoralis by a test sample is given when the growth inhibition is higher than the untreated sample.

[12] = system: Spodoptera littoralis (Egyptian Cotton Leaf Worm); test: Example B16: Spodoptera littoralis, sprayed cotton leaf discs, mortality; details: foliar, 72 h, application rate of 200 ppm, L1 larvae, 3 days after infestation
Description: Cotton leaf discs were placed onto agar in 24-well microtiter plates and sprayed with aqueous test solutions prepared from 10,000 ppm DMSO stock solutions. After drying the leaf discs were infested with five L1 larvae. The samples were assessed for mortality 3 days after infestation.

[13] = system: Spodoptera littoralis (Egyptian Cotton Leaf Worm); test: Example B17: Spodoptera littoralis, sprayed cotton leaf discs, mortality, anti-feeding effect and growth inhibition; details: foliar, 72 h, application rate of 200 ppm, L1 larvae, 3 days after infestation, read-out: control (at least one of mortality, anti-feedant effect, growth inhibition)
Description: Cotton leaf discs were placed onto agar in 24-well microtiter plates and sprayed with aqueous test solutions prepared from 10,000 ppm DMSO stock solutions. After drying the leaf discs were infested with five L1 larvae. The samples were assessed for mortality, anti-feeding effect, and growth inhibition in comparison to untreated samples 3 days after infestation. Control of Spodoptera littoralis by a test sample is given when at least one of the categories mortality, anti-feedant effect, and growth inhibition is higher than the untreated sample.

[14] = system: Frankliniella occidentalis (Western Flower Thrips); test: Example B7: Frankliniella occidentalis, sprayed sunflower leaf discs, mortality; details: foliar, 168 h, application rate of 200 ppm, population of mixed ages, 7 days after infestation
Description: Sunflower leaf discs were placed on agar in 24-well microtiter plates and sprayed with aqueous test solutions prepared from 10,000 DMSO stock solutions. After drying the leaf discs were infested with a Frankliniella population of mixed ages. The samples were assessed for mortality 7 days after infestation.

[15] = system: Aedes aegypti (Yellow Fever Mosquito); test: Example B23: Aedes aegypti, dry deposits in 12 well tissue culture plates, control; details: application rate of 200 ppm in ethanol, adult females, after 48 h and/or 24 h
Description: Test solutions, at an application rate of 200 ppm in ethanol, were applied to 12 well tissue culture plates. Once the deposits were dry, five, two to five day old adult female Aedes aegypti were added to each well, and sustained with a 10% sucrose solution in a cotton wool plug. Assessment of knockdown was made one hour after introduction, and mortality was assessed at 24 and 48 hours after introduction.

[16] = system: Spodoptera littoralis (Egyptian Cotton Leaf Worm); test: Example B18: Spodoptera littoralis, compound in agar absorbed by lettuce roots, mortality, anti-feedant effect and growth inhibition; details: 144 h, test rate of 12.5 ppm, uptake by lettuce roots, Spodoptera eggs, 6 days after infestation, read-out: effect in at least one of the three categories (mortality, anti-feeding, or growth inhibition)
Excerpt: Test compounds were applied by pipette from 10,000 ppm DMSO stock solutions into 24-well plates and mixed with agar. Lettuce seeds were placed onto the agar and the multi well plate was closed by another plate which contained also agar. After 7 days the compound was absorbed by the roots and the lettuce grew into the lid plate. The lettuce leaves were then cut off into the lid plate. Spodoptera eggs were pipetted through a plastic stencil onto a humid gel blotting paper and the lid plate was closed with it. The samples were assessed for mortality, anti-feedant effect and growth inhibition in comparison to untreated samples 6 days after infestation.

[17] = system: Spodoptera littoralis (Egyptian Cotton Leaf Worm); test: Example B19: Spodoptera littoralis, compound in agar absorbed by lettuce roots, anti-feedant effect; details: 144 h, test rate of 12.5 ppm, uptake by lettuce roots, Spodoptera eggs, 6 days after infestation, read-out: anti-feeding
Excerpt: Test compounds were applied by pipette prepared from 10,000 ppm DMSO stock solutions into 24-well plates and mixed with agar. Lettuce seeds were placed onto the agar and the multi well plate was closed by another plate which contained also agar. After 7 days the compound was absorbed by the roots and the lettuce grew into the lid plate. The lettuce leaves were then cut off into the lid plate. Spodoptera eggs were pipetted through a plastic stencil onto a humid gel blotting paper and the lid plate was closed with it. The samples were assessed for anti-feedant effect in comparison to untreated samples 6 days after infestation.

[18] = system: Spodoptera littoralis (Egyptian Cotton Leaf Worm); test: Example B20: Spodoptera littoralis, compound in agar absorbed by lettuce roots, mortality; details: 144 h, test rate of 12.5 ppm, uptake by lettuce roots, Spodoptera eggs, 6 days after infestation
Excerpt: Test compounds were applied by pipette prepared from 10,000 ppm DMSO stock solutions into 24-well plates and mixed with agar. Lettuce seeds were placed onto the agar and the multi well plate was closed by another plate which contained also agar. After 7 days the compound was absorbed by the roots and the lettuce grew into the lid plate. The lettuce leaves were then cut off into the lid plate.
Spodoptera eggs were pipetted through a plastic stencil onto a humid gel blotting paper and the lid plate was closed with it. The samples were assessed for mortality 6 days after infestation.

[19] = system: Bemisia tabaci (Cotton White Fly); test: Example B1: Bemisia tabaci, sprayed cotton leaf discs, mortality; details: foliar, 144 h, application rate of 200 ppm, adult white flies, 6 days after incubation
Description: Cotton leaf discs were placed on agar in 24-well microtiter plates and sprayed with aqueous test solutions prepared from 10,000 ppm DMSO stock solutions. After drying the leaf discs were infested with adult white flies. The samples were checked for mortality 6 days after incubation.

CCS(=O)(=O)c1cc(C2(C#N)CC2)cnc1-c1cn2cnc(C(F)(F)F)cc2n1 [Compound P8, 1-[5-ethylsulfonyl-6-[7-(trifluoromethyl)imidazo[1,2-c]pyrimidin-2-yl]-3-pyridyl]cyclopropanecarbonitrile]
≥ 80%: percent effect (mortality or growth inhibition) at 200 ppm [1] | mortality at 200 ppm [2] | inhibition at 200 ppm [3] | mortality at 200 ppm [4] | percent effect (mortality or growth inhibition) at 200 ppm [5] | mortality at 200 ppm [6] | inhibition at 200 ppm [7] | mortality at 200 ppm [8] | percent effect (mortality or growth inhibition) at 200 ppm [9] | pest or weed control at 200 ppm [10] | inhibition at 200 ppm [11] | mortality at 200 ppm [12] | percent control (mortality, anti-feedant effect or growth inhibition) at 200 ppm [13]

CCS(=O)(=O)c1cc(C2CC2)cnc1-c1cn2cnc(C(F)(F)F)cc2n1 [Compound P16, 2-(5-cyclopropyl-3-ethylsulfonyl-2-pyridyl)-7-(trifluoromethyl)imidazo [1,2-c]pyrimidine]
≥ 80%: percent effect (mortality or growth inhibition) at 200 ppm [1] | mortality at 200 ppm [2] | mortality at 200 ppm [4] | percent effect (mortality or growth inhibition) at 200 ppm [5] | mortality at 200 ppm [14] | mortality at 200 ppm [6] | inhibition at 200 ppm [7] | mortality at 200 ppm [8] | percent effect (mortality or growth inhibition) at 200 ppm [9] | pest or weed control at 200 ppm [10] | inhibition at 200 ppm [11] | mortality at 200 ppm [12] | percent control (mortality, anti-feedant effect or growth inhibition) at 200 ppm [13] | pest or weed control at 200 ppm [15]

CCS(=O)(=O)c1cc(-c2ccc(Cl)cc2)cnc1-c1cn2cnc(C(F)(F)F)cc2n1 [Compound P5, 2-[5-(4-chlorophenyl)-3-ethylsulfonyl-2-pyridyl]-7-(trifluoromethyl)imidazo [1,2-c]pyrimidine]
≥ 80%: percent effect (mortality or growth inhibition) at 200 ppm [1] | mortality at 200 ppm [2] | inhibition at 200 ppm [3] | mortality at 200 ppm [4] | percent effect (mortality or growth inhibition) at 200 ppm [5] | mortality at 200 ppm [14] | mortality at 200 ppm [8] | percent effect (mortality or growth inhibition) at 200 ppm [9] | pest or weed control at 200 ppm [10] | mortality at 200 ppm [12] | percent control (mortality, anti-feedant effect or growth inhibition) at 200 ppm [13] | percent effect (mortality, anti-feeding or growth inhibition) at 12.5 ppm [16] | pest or weed control at 12.5 ppm [17] | mortality at 12.5 ppm [18]

CCS(=O)(=O)c1cc(-c2ccc(C#N)cc2)cnc1-c1cn2cnc(C(F)(F)F)cc2n1 [Compound P10]
≥ 80%: mortality at 200 ppm [19] | percent effect (mortality or growth inhibition) at 200 ppm [1] | mortality at 200 ppm [2] | mortality at 200 ppm [14] | mortality at 200 ppm [8] | percent effect (mortality or growth inhibition) at 200 ppm [9] | pest or weed control at 200 ppm [10] | inhibition at 200 ppm [11] | mortality at 200 ppm [12] | percent control (mortality, anti-feedant effect or growth inhibition) at 200 ppm [13]
